Where a name gives a salt, the structure may show the parent alone.
How the values were obtained:
[1] = tested on: M5076 murine reticulosarcoma; assay: Antitumour activity (and toxic deaths) against M5076 murine reticulosarcoma transplanted s.c. in mice; type: in vivo, mouse (C75 B1/6 mice); details: for A.U.C. % inhib / T.C. % (median survival time treated/control × 100) / TOX (number of toxic deaths/total number of mice) / TDG (Tumor Growth Delay) (1 g) / LTS (Long Terms Survivors) / Tox (number of toxic deaths/total number of mice) / Tumor free (mice tumor free at the end of the experiments): days 5, 9, 15; for TDG (Tumor Growth Delay) (1 g): time to reach 1 g tumor weight
Experimental: Antitumour activity of compound A1 on M5076.
The antitumour activity of A1, described in Example 13, was tested as follows:
All drug solutions were prepared immediately before use. Treatment was administered i.v. in a volume of 10 ml/Kg body weight at days 5,9 and 15.
Anthracyclines were dissolved in sterile water and the concentration was checked spectrophotometrically.
Lyophylized polymers were dissolved in water to give a starting solution of 25 mg anthracycline equivalent/ml according to the reported concentration,further dilutions were performed in water.
M5076 murine reticulosarcoma was obtained by serial i.m. passage and transplanted (5×10^5 cells/mouse) s.c. in C75 B1/6 mice to evaluate the activity on primary tumor.
Tumor growth was assessed by. caliper measurement, and the tumor weight estimated according to Geran etal., see Cancer Chemother. Rep. 3, 1 (1972).
The antitumor activity was determined in time (days) to reach one gramm tumor weight and is reported as tumor growth delay (TGD).
The median increase in survival time (T/C%) was calculated using the following formula: [formula]
Toxicity was evaluated on the basis of body weight reduction and gross finding main of spleen and liver reduction.
Neurotoxicity is determined as number of mice with lack of motor function. […]
The antitumor activity was tested with the same treatment schedule for 4'-epidoxorubicin.HCl and compound A4.

[2] = Single-dose i.v. toxicity in healthy mice (LD10, LD50, therapeutic index); type: in vivo, mouse; details: mouse, in vivo, iv; single dose i.v., healthy C57 B1/F mice, Probit Analysis after 3-week recovery
Experimental: (§1) Toxicity was evaluated in healthy C57B1F mice, treatment i.v., with single doses of 4'-epidoxorubicin.HCl (13.2-16.15-19-20.6-25.2 and 33.2 mg/kg) and compound A4 (50-63-79-100-120-140 mg/kg)
(§2) For the determination of LD10 and LD= in healthy C57 B1F mice the Probit Analysis' after 3-week recovery was used.
(§3) The therapeutic index was calculated using the following formula: [formula]
(§4) Dose effective 50 is the dose causing 50% of tumor growth reduction.

healthy C57B1F mice = assay: as above; type: in vivo, mouse; details: for LD10: Probit Analysis after 3-week recovery
Experimental: as §1, §2, §3, §4

[3] = single dose i.v., healthy C57 B1/F mice
[4] = Table 2, 4.0 mg/kg (anthracycline equivalent) i.v.
[5] = Table 2, 5.0 mg/kg (anthracycline equivalent) i.v.
[6] = Table 2, 6.0 mg/kg (anthracycline equivalent) i.v.
[7] = Table 1, 30.0 mg/kg (anthracycline equivalent) i.v.
[8] = Table 1, 40.0 mg/kg (anthracycline equivalent) i.v.
[9] = Table 1, 50.0 mg/kg (anthracycline equivalent) i.v.

COc1cccc2c1C(=O)c1c(O)c3c(c(O)c1C2=O)C[C@@](O)(C(=O)CO)C[C@@H]3O[C@H]1C[C@H](N)[C@@H](O)[C@H](C)O1 [4'-epidoxorubicin.HCl, reference compound]
A.U.C. % inhib ([1]; Table 3, 5 mg/kg): 51% | T.C. % (median survival time treated/control × 100) ([1]; Table 3, 5 mg/kg): 105% | TOX (number of toxic deaths/total number of mice) ([1]; Table 3, 5 mg/kg): 0/9 | TDG (Tumor Growth Delay) (1 g) ([1]; Table 3, 5 mg/kg): 22 days | A.U.C. % inhib ([1]; Table 3, 7.5 mg/kg): 90% | T.C. % (median survival time treated/control × 100) ([1]; Table 3, 7.5 mg/kg): 124% | TOX (number of toxic deaths/total number of mice) ([1]; Table 3, 7.5 mg/kg): 0/9 | TDG (Tumor Growth Delay) (1 g) ([1]; Table 3, 7.5 mg/kg): 34 days | A.U.C. % inhib ([1]; Table 3, 10 mg/kg): 99% | T.C. % (median survival time treated/control × 100) ([1]; Table 3, 10 mg/kg): 125% | TOX (number of toxic deaths/total number of mice) ([1]; Table 3, 10 mg/kg): 0/9 | TDG (Tumor Growth Delay) (1 g) ([1]; Table 3, 10 mg/kg): 40 days | LD50 at 504 h [2]: 21.4 mg/kg | LD10 (healthy C57B1F mice; [3]): 16.4 mg/kg

CC(=O)[C@]1(O)Cc2c(O)c3c(c(O)c2[C@@H](O[C@H]2C[C@H](N)[C@H](O)[C@H](C)O2)C1)C(=O)c1ccccc1C3=O [4-demethoxydaunorubicin, reference compound]
A.U.C. % inhib ([1]; Table 2, 1.0 mg/kg i.v.): 47% | LTS (Long Terms Survivors) ([1]; Table 2, 1.0 mg/kg i.v.): 0/9 | T.C. % (median survival time treated/control × 100) ([1]; Table 2, 1.0 mg/kg i.v.): 142% | Tox (number of toxic deaths/total number of mice) ([1]; Table 2, 1.0 mg/kg i.v.): 0/9 | Tumor free (mice tumor free at the end of the experiments) ([1]; Table 2, 1.0 mg/kg i.v.): 0/9 | TDG (Tumor Growth Delay) (1 g) ([1]; Table 2, 1.0 mg/kg i.v.): 19 days | A.U.C. % inhib ([1]; Table 2, 1.5 mg/kg i.v.): 80% | LTS (Long Terms Survivors) ([1]; Table 2, 1.5 mg/kg i.v.): 0/9 | T.C. % (median survival time treated/control × 100) ([1]; Table 2, 1.5 mg/kg i.v.): 160% | Tox (number of toxic deaths/total number of mice) ([1]; Table 2, 1.5 mg/kg i.v.): 0/9 | Tumor free (mice tumor free at the end of the experiments) ([1]; Table 2, 1.5 mg/kg i.v.): 0/9 | TDG (Tumor Growth Delay) (1 g) ([1]; Table 2, 1.5 mg/kg i.v.): 28 days

COc1cccc2c1C(=O)c1c(O)c3c(c(O)c1C2=O)C[C@@](O)(C(=O)CO)C[C@@H]3O[C@H]1C[C@H](N)[C@H](O)[C@H](C)O1 [doxorubicin, reference compound]
A.U.C. % inhib ([1]; Table 1, 7.5 mg/kg i.v.): 90% | LTS (Long Terms Survivors) ([1]; Table 1, 7.5 mg/kg i.v.): 0/26 | Tox (number of toxic deaths/total number of mice) ([1]; Table 1, 7.5 mg/kg i.v.): 0/26 | Tumor free (mice tumor free at the end of the experiments) ([1]; Table 1, 7.5 mg/kg i.v.): 0/26 | TDG (Tumor Growth Delay) (1 g) ([1]; Table 1, 7.5 mg/kg i.v.): 35 days | A.U.C. % inhib ([1]; Table 1, 10.0 mg/kg i.v.): 100% | LTS (Long Terms Survivors) ([1]; Table 1, 10.0 mg/kg i.v.): 0/26 | Tox (number of toxic deaths/total number of mice) ([1]; Table 1, 10.0 mg/kg i.v.): 3/26 | Tumor free (mice tumor free at the end of the experiments) ([1]; Table 1, 10.0 mg/kg i.v.): 0/26 | TDG (Tumor Growth Delay) (1 g) ([1]; Table 1, 10.0 mg/kg i.v.): 39 days

Copolymer of 3-methacryloylamino-2-hydroxypropane, 4'-epi-3'-N-(methacryloylglycyl-L-phenylalanyl-L-leuculglycyl)doxorubicin and 1-N-(methacryloylgylcyl)-2-hydrocypropane [A4]
A.U.C. % inhib ([1]; Table 3, 10 mg/kg): 100% | T.C. % (median survival time treated/control × 100) ([1]; Table 3, 10 mg/kg): 190% | TOX (number of toxic deaths/total number of mice) ([1]; Table 3, 10 mg/kg): 0/9 | TDG (Tumor Growth Delay) (1 g) ([1]; Table 3, 10 mg/kg): 62 days | A.U.C. % inhib ([1]; Table 3, 20 mg/kg): 100% | T.C. % (median survival time treated/control × 100) ([1]; Table 3, 20 mg/kg): 219% | TOX (number of toxic deaths/total number of mice) ([1]; Table 3, 20 mg/kg): 0/9 | TDG (Tumor Growth Delay) (1 g) ([1]; Table 3, 20 mg/kg): 62 days | A.U.C. % inhib ([1]; Table 3, 30 mg/kg): 100% | T.C. % (median survival time treated/control × 100) ([1]; Table 3, 30 mg/kg): 229% | TOX (number of toxic deaths/total number of mice) ([1]; Table 3, 30 mg/kg): 0/9 | TDG (Tumor Growth Delay) (1 g) ([1]; Table 3, 30 mg/kg): 71 days | Activity against early M5076 murine reticulosarcoma compared with free drug ([1]; versus 4'-epidoxorubicin.HCl, same treatment schedule): more active than free drug at all tested doses | therapeutic index (healthy C57B1F mice; calculated by formula using dose effective 50 (dose causing 50% of tumor growth reduction)): 40 | toxicity (healthy C57B1F mice; compared with 4'-epidoxorubicin.HCl): low toxicity | LD10 (healthy C57B1F mice; [3]): 128.0 mg/kg | LD50 (extrapolated value) (healthy C57B1F mice; single dose i.v., healthy C57 B1/F mice, Probit Analysis, extrapolated value, 30240 min): 389 mg/kg

Copolymer of 3-methacryloylamino-2-hyvdroxypropane, 4-demethoxy, 3'-N-(methacrylgylcyl-L-phenylalanyl-L-leucyl glycyl)daunorubicin and N-methacryloylglycine [A3]
A.U.C. % inhib [1, 4]: 100% | LTS (Long Terms Survivors) [1, 4]: 0/10 | T.C. % (median survival time treated/control × 100) [1, 4]: 198% | Tox (number of toxic deaths/total number of mice) [1, 4]: 0/10 | Tumor free (mice tumor free at the end of the experiments) [1, 4]: 0/10 | TDG (Tumor Growth Delay) (1 g) [1, 4]: 49 days | A.U.C. % inhib [1, 5]: 100% | LTS (Long Terms Survivors) [1, 5]: 0/10 | T.C. % (median survival time treated/control × 100) [1, 5]: 205% | Tox (number of toxic deaths/total number of mice) [1, 5]: 0/10 | Tumor free (mice tumor free at the end of the experiments) [1, 5]: 0/10 | TDG (Tumor Growth Delay) (1 g) [1, 5]: 50 days | A.U.C. % inhib [1, 6]: 100% | LTS (Long Terms Survivors) [1, 6]: 0/9 | T.C. % (median survival time treated/control × 100) [1, 6]: 212% | Tox (number of toxic deaths/total number of mice) [1, 6]: 0/9 | Tumor free (mice tumor free at the end of the experiments) [1, 6]: 0/9 | TDG (Tumor Growth Delay) (1 g) [1, 6]: 55 days

Copolymer of 3-methacryloylamino-2hydroxypropane, 3'-N-(methacryloylgly-L-phenlalanyl-L-leucylqlycyl)doxorubicin and N-methacryloylqlycine [A1]
A.U.C. % inhib [1, 7]: 100% | LTS (Long Terms Survivors) [1, 7]: 4/10 | T.C. % (median survival time treated/control × 100) [1, 7]: 378% | Tox (number of toxic deaths/total number of mice) [1, 7]: 0/10 | Tumor free (mice tumor free at the end of the experiments) [1, 7]: 3/10 | TDG (Tumor Growth Delay) (1 g) [1, 7]: 80 days | A.U.C. % inhib [1, 8]: 100% | LTS (Long Terms Survivors) [1, 8]: 6/10 | T.C. % (median survival time treated/control × 100) [1, 8]: > 369% | Tox (number of toxic deaths/total number of mice) [1, 8]: 0/10 | Tumor free (mice tumor free at the end of the experiments) [1, 8]: 5/10 | A.U.C. % inhib [1, 9]: 100% | LTS (Long Terms Survivors) [1, 9]: 7/10 | T.C. % (median survival time treated/control × 100) [1, 9]: > 369% | Tumor free (mice tumor free at the end of the experiments) [1, 9]: 7/10 | Tox (number of toxic deaths/total number of mice) ([1]; Table 1, 50.0 mg/kg (anthracycline equivalent) i.v., footnote *Neurotoxicity): 2/10

Reference: patent US5571785A, “Biologically active compounds” (Farmitalia Carlo Erba S.r.l, priority 1993, dated 1996)
